Measured values reported in patent US7812008B2, “9-substituted tetracyclines” (Wyeth LLC, priority 2005, dated 2010).
≈ marks a conversion by molar mass, not a printed value. Read-outs that look alike come from different tables or passages of the source.

Key:
[1] = test system: S. aureus GC1079 (tet(K)); assay: MIC broth microdilution, S. aureus GC1079 (tet(K)); type: cell-based; conditions: MHBII, 18-22 hours at 35° C.
Outline: (§1)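 NCCLS microdilution in MHBII, 10^5 CFU/ml inoculum, incubated 35° C for 18-22 hours.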

[2] = test system: Staphylococcal aureus Smith M P; assay: In vivo antibacterial evaluation, acute lethal infection in mice; conditions: Mus musculus; single oral dose 30 minutes after intraperitoneal challenge; female CD-1 mice; 7 day survival ratios, 3 tests pooled; read-out: SOD* ED50
[3] = test system: E. coli GC2203 (ATCC Control); assay: MIC broth microdilution, E. coli GC2203 (ATCC Control); type: cell-based; conditions: MHBII, 18-22 hours at 35° C.
Outline: as §1

[4] = test system: C. albicans GC3066 ATCC (Control); assay: MIC broth microdilution, C. albicans GC3066 ATCC (Control); type: cell-based; conditions: 18-22 hours at 35° C.
Outline: as §1

[5] = test system: Staphylococcal aureus Smith M P; assay: In vivo antibacterial evaluation, acute lethal infection in mice; conditions: Mus musculus, iv, 168 h; single intraveneous dose; female CD-1 mice; 7 day survival ratios, 3 tests pooled; read-out: SIV* ED50
E. coli GC2270 (tet(M)) = assay: MIC broth microdilution, E. coli GC2270 (tet(M)); type: cell-based; conditions: MHBII, 18-22 hours at 35° C.
Outline: (§2)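 MIC determined by NCCLS-recommended broth microdilution. Organisms grown at 10^5 CFU/ml in Mueller-Hinton II broth against serially diluted compound, 18-22 hours at 35° C.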

[6] = test system: S. pneumoniae* GC1894 (Clinical); assay: MIC broth microdilution, S. pneumoniae GC1894 (Clinical); type: cell-based; conditions: 18-22 hours at 35° C.
Outline: as §1

[7] = test system: M. catarrhalis* GC6907 (Clinical); assay: MIC broth microdilution, M. catarrhalis GC6907 (Clinical); type: cell-based; conditions: 18-22 hours at 35° C.
Outline: as §1

[8] = test system: H. influenzae<> GC6896 (ATCC Control); assay: MIC broth microdilution, H. influenzae GC6896 (ATCC Control); type: cell-based; conditions: 18-22 hours at 35° C.
Outline: as §1

[9] = test system: S. pyogenes* GC4563 (Clinical); assay: MIC broth microdilution, S. pyogenes GC4563 (Clinical); type: cell-based; conditions: 18-22 hours at 35° C.
Outline: as §1

[10] = test system: S. aureus GC1131 (Clinical); assay: MIC broth microdilution, S. aureus GC1131 (Clinical); type: cell-based; conditions: MHBII, 18-22 hours at 35° C.
Outline: as §1

[11] = test system: S. aureus GC4536 (Smith MP -In Vivo); assay: MIC broth microdilution, S. aureus GC4536 (Smith MP -In Vivo); type: cell-based; conditions: MHBII, 18-22 hours at 35° C.
Outline: as §1

[12] = test system: S. aureus GC2216 (ATCC Control); assay: MIC broth microdilution, S. aureus GC2216 (ATCC Control); type: cell-based; conditions: MHBII, 18-22 hours at 35° C.
Outline: as §1

E. coli GC1073 (tet(B)) = assay: MIC broth microdilution, E. coli GC1073 (tet(B)); type: cell-based; conditions: MHBII, 18-22 hours at 35° C.
Outline: as §2

[13] = test system: Staphylococcal aureus Smith M P; assay: MIC reported in Table 2 beside the in vivo ED50; type: cell-based; conditions: Staphylococcus aureus, infecting strain S. aureus Smith MP
[14] = test system: E. coli GC4559 (parent GC4560); assay: MIC broth microdilution, E. coli GC4559 (parent GC4560); type: cell-based; conditions: MHBII, 18-22 hours at 35° C.
Outline: as §1

[15] = test system: S. pneumoniae* GC4465 (Clinical); assay: MIC broth microdilution, S. pneumoniae GC4465 (Clinical); type: cell-based; conditions: 18-22 hours at 35° C.
Outline: as §1

[16] = test system: E. faecalis GC4555 (ATCC Control); assay: MIC broth microdilution, E. faecalis GC4555 (ATCC Control); type: cell-based; conditions: MHBII, 18-22 hours at 35° C.
Outline: as §1

[17] = test system: S. aureus GC6466 (tet(M)); assay: MIC broth microdilution, S. aureus GC6466 (tet(M)); type: cell-based; conditions: MHBII, 18-22 hours at 35° C.
Outline: as §1

[18] = test system: E. coli GC4560 (IMP mutant); assay: MIC broth microdilution, E. coli GC4560 (IMP mutant); type: cell-based; conditions: MHBII, 18-22 hours at 35° C.
Outline: as §2

[19] = test system: S. aureus GC6467 (tet(M) + (K)); assay: MIC broth microdilution, S. aureus GC6467 (tet(M) + (K)); type: cell-based; conditions: MHBII, 18-22 hours at 35° C.
Outline: as §2

[20] = test system: E. faecalis GC2267 (tet(L) + (M) + (S)); assay: MIC broth microdilution, E. faecalis GC2267 (tet(L) + (M) + (S)); type: cell-based; conditions: MHBII, 18-22 hours at 35° C.
Outline: as §2

[21] = test system: E. faecalis GC2242 (Van-resistant); assay: MIC broth microdilution, E. faecalis GC2242 (Van-resistant); type: cell-based; conditions: MHBII, 18-22 hours at 35° C.
Outline: as §1

## CN(C)c1cc(NC(=O)CNOC(C)(C)C)c(O)c2c1C[C@H]1C[C@H]3[C@H](N(C)C)C(O)=C(C(N)=O)C(=O)[C@@]3(O)C(O)=C1C2=O [Example 4, (4S,4aS,5aR,12aS)-9-{[N-(tert-butoxy)glycyl]amino}-4,7-bis(dimethylamino)-3,10,12,12a-tetrahydroxy-1,11-dioxo-1,4,4a,5,5a,6,11,12a-octahydrotetracene-2-carboxamide]
[1]
  minimum inhibitory concentration (MIC): 16
[2]
  ED50: 1.1 mg/kg
[3]
  minimum inhibitory concentration (MIC): 8
[4]
  minimum inhibitory concentration (MIC): >64
[5]
  ED50: 0.25 to 1 mg/kg
E. coli GC2270 (tet(M))
  minimum inhibitory concentration (MIC): 8
[6]
  minimum inhibitory concentration (MIC): 0.25
[7]
  minimum inhibitory concentration (MIC): 0.50
[8]
  minimum inhibitory concentration (MIC): 2
[9]
  minimum inhibitory concentration (MIC): 0.12
[10]
  minimum inhibitory concentration (MIC): 1
[11]
  minimum inhibitory concentration (MIC): 1
[12]
  minimum inhibitory concentration (MIC): 1
E. coli GC1073 (tet(B))
  minimum inhibitory concentration (MIC): 16
[13]
  MIC: 4 µg/mL (≈ 6.65 µM)
[14]
  minimum inhibitory concentration (MIC): 16
[15]
  minimum inhibitory concentration (MIC): 0.25
[16]
  minimum inhibitory concentration (MIC): 1
[17]
  minimum inhibitory concentration (MIC): 1
[18]
  minimum inhibitory concentration (MIC): 0.50
[19]
  minimum inhibitory concentration (MIC): >64
[20]
  minimum inhibitory concentration (MIC): 8
[21]
  minimum inhibitory concentration (MIC): 1
